Key:
Assay type in all cases: cell-based
Settings in all cases: compounds at 50 nM and 500 nM
[1] = molecular target: T1, WEE1 (Homo sapiens, UniProt P30291+Q96SW2); assay: Western blot degradation of WEE1 in hPBMCs (24 h)
T1 construct: The supernatant was aspirated as the extracted total cell protein; endogenous in cells; host or cells: human peripheral blood mononuclear cells (hPBMCs)
Summary of the method: (§1)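 Compounds were tested at 50 nM and 500 nM on hPBMCs (1×10^6 cells/mL) for 24 h, alongside DMSO. Proteins were detected by Western blot after denaturation at 95 °C; remaining protein computed from normalised band grayscale.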

[2] = molecular target: T2, IKZF1 (Homo sapiens, UniProt Q13422+Q96SW2); assay: Western blot degradation of IKZF1 in hPBMCs (24 h)
T2 construct: The supernatant was aspirated as the extracted total cell protein; endogenous in cells; host or cells: human peripheral blood mononuclear cells (hPBMCs)
T2 sequence (Q13422 whole entry): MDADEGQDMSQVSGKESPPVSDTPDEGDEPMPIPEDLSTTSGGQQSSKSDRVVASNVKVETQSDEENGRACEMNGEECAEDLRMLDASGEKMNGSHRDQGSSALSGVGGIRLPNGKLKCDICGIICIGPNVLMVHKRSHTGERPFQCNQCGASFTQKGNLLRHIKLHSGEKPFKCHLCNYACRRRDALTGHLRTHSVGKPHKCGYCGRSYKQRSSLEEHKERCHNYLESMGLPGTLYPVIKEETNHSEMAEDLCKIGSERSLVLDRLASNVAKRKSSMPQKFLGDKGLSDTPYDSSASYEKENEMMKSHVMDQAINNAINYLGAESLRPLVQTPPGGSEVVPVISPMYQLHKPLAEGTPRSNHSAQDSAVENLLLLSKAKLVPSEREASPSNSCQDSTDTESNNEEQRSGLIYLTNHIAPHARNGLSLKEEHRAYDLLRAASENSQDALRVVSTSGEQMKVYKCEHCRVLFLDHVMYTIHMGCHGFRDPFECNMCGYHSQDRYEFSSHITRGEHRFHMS
T2 sequence (Q96SW2 whole entry): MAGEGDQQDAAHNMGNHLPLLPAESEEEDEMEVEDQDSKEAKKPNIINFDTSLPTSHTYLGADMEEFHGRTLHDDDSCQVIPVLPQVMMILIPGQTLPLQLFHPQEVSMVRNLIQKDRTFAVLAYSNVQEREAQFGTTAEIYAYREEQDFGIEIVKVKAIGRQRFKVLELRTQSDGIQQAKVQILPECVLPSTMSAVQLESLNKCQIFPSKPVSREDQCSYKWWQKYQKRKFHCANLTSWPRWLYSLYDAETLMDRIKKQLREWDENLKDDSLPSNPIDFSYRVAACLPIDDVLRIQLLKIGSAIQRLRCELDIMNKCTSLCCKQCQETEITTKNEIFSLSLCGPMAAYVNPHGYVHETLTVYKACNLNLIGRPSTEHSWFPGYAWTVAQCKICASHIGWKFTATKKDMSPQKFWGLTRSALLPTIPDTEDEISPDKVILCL
T2 sequence (Q16531 whole entry partner): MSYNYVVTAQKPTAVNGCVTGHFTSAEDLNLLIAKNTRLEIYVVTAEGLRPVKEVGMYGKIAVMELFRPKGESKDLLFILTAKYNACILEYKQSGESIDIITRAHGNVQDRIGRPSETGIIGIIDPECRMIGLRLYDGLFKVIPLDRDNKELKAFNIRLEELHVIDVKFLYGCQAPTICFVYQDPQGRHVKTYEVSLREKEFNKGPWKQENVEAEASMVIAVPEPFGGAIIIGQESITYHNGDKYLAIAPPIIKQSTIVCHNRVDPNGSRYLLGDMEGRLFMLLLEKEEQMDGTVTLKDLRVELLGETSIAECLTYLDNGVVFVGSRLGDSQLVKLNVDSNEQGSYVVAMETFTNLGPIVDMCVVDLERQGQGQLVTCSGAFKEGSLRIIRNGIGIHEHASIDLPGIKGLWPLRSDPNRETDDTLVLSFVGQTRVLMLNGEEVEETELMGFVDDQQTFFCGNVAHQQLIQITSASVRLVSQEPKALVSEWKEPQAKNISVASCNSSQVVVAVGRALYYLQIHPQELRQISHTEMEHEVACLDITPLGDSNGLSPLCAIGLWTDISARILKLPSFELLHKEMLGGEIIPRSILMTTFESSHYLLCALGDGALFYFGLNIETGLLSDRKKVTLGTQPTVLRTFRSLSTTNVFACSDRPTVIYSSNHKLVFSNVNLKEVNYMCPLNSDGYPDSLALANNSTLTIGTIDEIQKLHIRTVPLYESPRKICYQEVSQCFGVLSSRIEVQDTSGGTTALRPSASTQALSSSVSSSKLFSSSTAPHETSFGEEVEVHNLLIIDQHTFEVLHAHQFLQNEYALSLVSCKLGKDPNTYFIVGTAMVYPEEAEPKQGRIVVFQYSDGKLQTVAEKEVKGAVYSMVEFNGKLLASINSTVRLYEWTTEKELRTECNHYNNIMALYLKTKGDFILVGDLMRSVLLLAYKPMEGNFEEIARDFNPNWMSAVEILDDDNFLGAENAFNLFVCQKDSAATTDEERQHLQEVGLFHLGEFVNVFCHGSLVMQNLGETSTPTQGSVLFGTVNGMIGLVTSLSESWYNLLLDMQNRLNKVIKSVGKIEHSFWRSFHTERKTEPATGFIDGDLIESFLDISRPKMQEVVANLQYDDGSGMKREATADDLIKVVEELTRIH
Summary of the method: as §1

[3] = molecular target: T3, IKZF2 (Homo sapiens, UniProt Q96SW2+Q9UKS7); assay: Western blot degradation of IKZF2 in hPBMCs (24 h)
T3 construct: The supernatant was aspirated as the extracted total cell protein; endogenous in cells; host or cells: human peripheral blood mononuclear cells (hPBMCs)
T3 sequence (Q9UKS7 whole entry): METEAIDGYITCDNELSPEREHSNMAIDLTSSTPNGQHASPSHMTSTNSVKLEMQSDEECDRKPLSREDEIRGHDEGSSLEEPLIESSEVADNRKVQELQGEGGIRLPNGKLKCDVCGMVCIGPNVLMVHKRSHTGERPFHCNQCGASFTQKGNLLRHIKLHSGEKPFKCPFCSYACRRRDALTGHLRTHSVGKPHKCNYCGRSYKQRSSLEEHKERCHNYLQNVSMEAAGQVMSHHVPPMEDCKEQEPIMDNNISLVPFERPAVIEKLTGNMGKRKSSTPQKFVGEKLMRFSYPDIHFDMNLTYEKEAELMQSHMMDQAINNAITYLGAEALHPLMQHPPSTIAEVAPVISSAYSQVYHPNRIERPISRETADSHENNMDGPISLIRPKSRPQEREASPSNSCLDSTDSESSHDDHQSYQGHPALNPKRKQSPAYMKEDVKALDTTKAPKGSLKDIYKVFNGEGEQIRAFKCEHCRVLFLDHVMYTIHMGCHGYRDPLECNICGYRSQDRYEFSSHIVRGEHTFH
T3 sequence (Q96SW2 whole entry): as the sequence (Q96SW2 whole entry) above
T3 sequence (Q16531 whole entry partner): as the sequence (Q16531 whole entry partner) above
Summary of the method: as §1

[4] = molecular target: T4, IKZF3 (Homo sapiens, UniProt Q96SW2+Q9UKT9); assay: Western blot degradation of IKZF3 in hPBMCs (24 h)
T4 construct: The supernatant was aspirated as the extracted total cell protein; endogenous in cells; host or cells: human peripheral blood mononuclear cells (hPBMCs)
T4 sequence (Q9UKT9 whole entry): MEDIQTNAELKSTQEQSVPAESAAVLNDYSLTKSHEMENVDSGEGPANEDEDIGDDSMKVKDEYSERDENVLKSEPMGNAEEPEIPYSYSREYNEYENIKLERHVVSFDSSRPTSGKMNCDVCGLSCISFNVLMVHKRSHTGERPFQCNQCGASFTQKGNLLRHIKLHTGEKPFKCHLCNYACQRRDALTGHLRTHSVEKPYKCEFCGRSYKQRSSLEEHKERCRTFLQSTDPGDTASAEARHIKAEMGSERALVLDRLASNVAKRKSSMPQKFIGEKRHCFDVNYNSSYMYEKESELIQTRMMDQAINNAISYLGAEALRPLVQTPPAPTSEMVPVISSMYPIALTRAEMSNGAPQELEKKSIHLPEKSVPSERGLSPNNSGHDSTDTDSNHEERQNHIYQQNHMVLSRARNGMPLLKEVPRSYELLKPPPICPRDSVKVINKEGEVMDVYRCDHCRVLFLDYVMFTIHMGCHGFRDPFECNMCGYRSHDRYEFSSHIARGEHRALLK
T4 sequence (Q96SW2 whole entry): as the sequence (Q96SW2 whole entry) above
T4 sequence (Q16531 whole entry partner): as the sequence (Q16531 whole entry partner) above
Summary of the method: as §1

[5] = molecular target: T5, CK1α (Homo sapiens, UniProt P48729+Q96SW2); assay: Western blot degradation of CK1α in hPBMCs (24 h)
T5 construct: The supernatant was aspirated as the extracted total cell protein; endogenous in cells; host or cells: human peripheral blood mononuclear cells (hPBMCs)
T5 sequence (P48729 whole entry): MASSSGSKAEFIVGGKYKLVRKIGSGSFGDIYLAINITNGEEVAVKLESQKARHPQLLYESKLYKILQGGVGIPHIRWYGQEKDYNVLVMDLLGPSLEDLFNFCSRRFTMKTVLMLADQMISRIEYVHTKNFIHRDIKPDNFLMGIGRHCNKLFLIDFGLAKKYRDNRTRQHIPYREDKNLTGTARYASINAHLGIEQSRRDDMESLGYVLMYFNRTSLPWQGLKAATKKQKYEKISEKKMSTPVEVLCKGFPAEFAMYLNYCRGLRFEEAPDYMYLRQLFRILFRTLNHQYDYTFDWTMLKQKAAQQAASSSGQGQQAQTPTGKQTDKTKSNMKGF
T5 sequence (Q96SW2 whole entry): as the sequence (Q96SW2 whole entry) above
T5 sequence (Q16531 whole entry partner): as the sequence (Q16531 whole entry partner) above
Summary of the method: as §1

[6] = molecular target: T6, GSPT1 (Homo sapiens, UniProt P15170+Q96SW2); assay: Western blot degradation of GSPT1 in hPBMCs (24 h)
T6 construct: The supernatant was aspirated as the extracted total cell protein; endogenous in cells; host or cells: human peripheral blood mononuclear cells (hPBMCs)
Summary of the method: as §1

T1 sequence (P30291 whole entry): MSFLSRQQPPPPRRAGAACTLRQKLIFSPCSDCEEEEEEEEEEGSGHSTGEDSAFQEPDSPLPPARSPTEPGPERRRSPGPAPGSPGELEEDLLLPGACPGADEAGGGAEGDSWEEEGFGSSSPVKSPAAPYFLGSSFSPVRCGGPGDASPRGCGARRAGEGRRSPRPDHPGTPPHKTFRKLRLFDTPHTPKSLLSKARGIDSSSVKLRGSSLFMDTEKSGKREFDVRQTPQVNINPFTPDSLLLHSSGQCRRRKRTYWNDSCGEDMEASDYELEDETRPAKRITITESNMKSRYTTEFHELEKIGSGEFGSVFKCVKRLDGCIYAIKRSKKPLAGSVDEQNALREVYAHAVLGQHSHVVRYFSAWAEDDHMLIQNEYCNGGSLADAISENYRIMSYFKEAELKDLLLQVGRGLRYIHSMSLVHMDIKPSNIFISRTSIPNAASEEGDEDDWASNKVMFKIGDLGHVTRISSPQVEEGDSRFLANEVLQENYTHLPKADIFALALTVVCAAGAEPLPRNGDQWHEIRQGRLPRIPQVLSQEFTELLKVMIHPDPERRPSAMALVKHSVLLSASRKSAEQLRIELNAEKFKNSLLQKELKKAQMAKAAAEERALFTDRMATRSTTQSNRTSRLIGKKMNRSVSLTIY
T1 sequence (Q96SW2 whole entry): as the sequence (Q96SW2 whole entry) above
T1 sequence (Q16531 whole entry partner): as the sequence (Q16531 whole entry partner) above

**Q.** With `O=C1CCN(N2C(=O)c3ccc(CN4CCC(c5ccccc5)CC4)cc3C2=O)C(=O)N1` [GT-06803, 2-(2,4-dioxotetrahydropyrimidin-1(2H)-yl)-5-((4-phenylpiperidin-1-yl)methyl)isoindoline-1,3-dione] as the compound, how does the “WEE1 substrate protein remaining %” value [1] read?
**A.** The value was “B (80%< substrate protein remaining % ≤100%)”.

**Q.** What about the “IKZF1 substrate protein remaining %” value [2] of the same compound?
**A.** The value was “B (80%< substrate protein remaining % ≤100%)”.

**Q.** What about the “IKZF2 substrate protein remaining %” value [3] of the same compound?
**A.** The value was “B (80%< substrate protein remaining % ≤100%)”.

**Q.** What about the “IKZF3 substrate protein remaining %” value [4] of the same compound?
**A.** Its value is “B (80%< substrate protein remaining % ≤100%)”.

**Q.** And the “CK1α substrate protein remaining %” value [5]?
**A.** Its value is “A (0% ≤ substrate protein remaining % ≤80%)”.

**Q.** What about the “GSPT1 substrate protein remaining %” value [6] of the same compound?
**A.** The value was “B (80%< substrate protein remaining % ≤100%)”.

**Q.** For `O=C1CCN(N2C(=O)c3ccc(CN4CCC(c5cccc(Br)c5)CC4)cc3C2=O)C(=O)N1` [GT-06804, 5-((4-(3-bromophenyl)piperidin-1-yl)methyl)-2-(2,4-dioxotetrahydropyrimidin-1(2H)-yl)isoindoline-1,3-dione], which “WEE1 substrate protein remaining %” value [1] is on record?
**A.** The value was “B (80%< substrate protein remaining % ≤100%)”.

**Q.** What about the “IKZF1 substrate protein remaining %” value [2] of the same compound?
**A.** The value was “B (80%< substrate protein remaining % ≤100%)”.

**Q.** What about the “IKZF2 substrate protein remaining %” value [3] of the same compound?
**A.** Its value is “B (80%< substrate protein remaining % ≤100%)”.

**Q.** What about the “IKZF3 substrate protein remaining %” value [4] of the same compound?
**A.** The value was “B (80%< substrate protein remaining % ≤100%)”.

**Q.** And the “CK1α substrate protein remaining %” value [5]?
**A.** The value was “A (0% ≤ substrate protein remaining % ≤80%)”.

**Q.** And the “GSPT1 substrate protein remaining %” value [6]?
**A.** Its value is “B (80%< substrate protein remaining % ≤100%)”.

**Q.** With `O=C1CCN(N2C(=O)c3ccc(CN4CCC(c5ccc(Br)cc5)CC4)cc3C2=O)C(=O)N1` [GT-06805, 5-((4-(4-bromophenyl)piperidin-1-yl)methyl)-2-(2,4-dioxotetrahydropyrimidin-1(2H)-yl)isoindoline-1,3-dione] as the compound, how does the “WEE1 substrate protein remaining %” value [1] read?
**A.** Its value is “B (80%< substrate protein remaining % ≤100%)”.

**Q.** What about the “IKZF1 substrate protein remaining %” value [2] of the same compound?
**A.** The value was “B (80%< substrate protein remaining % ≤100%)”.

**Q.** And the “IKZF2 substrate protein remaining %” value [3]?
**A.** The value was “B (80%< substrate protein remaining % ≤100%)”.

**Q.** What about the “IKZF3 substrate protein remaining %” value [4] of the same compound?
**A.** Its value is “B (80%< substrate protein remaining % ≤100%)”.

**Q.** What about the “CK1α substrate protein remaining %” value [5] of the same compound?
**A.** The value was “A (0% ≤ substrate protein remaining % ≤80%)”.

**Q.** And the “GSPT1 substrate protein remaining %” value [6]?
**A.** Its value is “B (80%< substrate protein remaining % ≤100%)”.

**Q.** For `O=C1CCN(N2C(=O)c3ccc(CN4CCC(c5ccccc5F)CC4)cc3C2=O)C(=O)N1` [GT-06877, 2-(2,4-dioxotetrahydropyrimidin-1(2H)-yl)-5-((4-(2-fluorophenyl)piperidin-1-yl)methyl)isoindoline-1,3-dione], which “WEE1 substrate protein remaining %” value [1] is on record?
**A.** The value was “B (80%< substrate protein remaining % ≤100%)”.

**Q.** What about the “IKZF1 substrate protein remaining %” value [2] of the same compound?
**A.** Its value is “B (80%< substrate protein remaining % ≤100%)”.

**Q.** And the “IKZF2 substrate protein remaining %” value [3]?
**A.** The value was “B (80%< substrate protein remaining % ≤100%)”.

**Q.** And the “IKZF3 substrate protein remaining %” value [4]?
**A.** Its value is “B (80%< substrate protein remaining % ≤100%)”.

**Q.** What about the “CK1α substrate protein remaining %” value [5] of the same compound?
**A.** The value was “A (0% ≤ substrate protein remaining % ≤80%)”.

**Q.** What about the “GSPT1 substrate protein remaining %” value [6] of the same compound?
**A.** Its value is “B (80%< substrate protein remaining % ≤100%)”.

**Q.** `O=C1CCN(N2C(=O)c3ccc(CN4CCC(c5ccc(F)cc5)CC4)cc3C2=O)C(=O)N1` [GT-06878, 2-(2,4-dioxotetrahydropyrimidin-1(2H)-yl)-5-((4-(4-fluorophenyl)piperidin-1-yl)methyl)isoindoline-1,3-dione] was tested. Which “WEE1 substrate protein remaining %” value [1] did it give?
**A.** The value was “B (80%< substrate protein remaining % ≤100%)”.

**Q.** And the “IKZF1 substrate protein remaining %” value [2]?
**A.** Its value is “B (80%< substrate protein remaining % ≤100%)”.

**Q.** What about the “IKZF2 substrate protein remaining %” value [3] of the same compound?
**A.** The value was “B (80%< substrate protein remaining % ≤100%)”.

**Q.** And the “IKZF3 substrate protein remaining %” value [4]?
**A.** The value was “B (80%< substrate protein remaining % ≤100%)”.

**Q.** What about the “CK1α substrate protein remaining %” value [5] of the same compound?
**A.** The value was “A (0% ≤ substrate protein remaining % ≤80%)”.

**Q.** What about the “GSPT1 substrate protein remaining %” value [6] of the same compound?
**A.** The value was “A (0% ≤ substrate protein remaining % ≤80%)”.

**Q.** Which “WEE1 substrate protein remaining %” value [1] does the source give for `O=C1CCN(N2C(=O)c3ccc(CN4CCC(c5ccccc5C(F)(F)F)CC4)cc3C2=O)C(=O)N1` [GT-06879, 2-(2,4-dioxotetrahydropyrimidin-1(2H)-yl)-5-((4-(2-(trifluoromethyl)phenyl)piperidin-1-yl)methyl)isoindoline-1,3-dione] here?
**A.** The value was “B (80%< substrate protein remaining % ≤100%)”.

**Q.** What about the “IKZF1 substrate protein remaining %” value [2] of the same compound?
**A.** Its value is “B (80%< substrate protein remaining % ≤100%)”.

**Q.** And the “IKZF2 substrate protein remaining %” value [3]?
**A.** The value was “B (80%< substrate protein remaining % ≤100%)”.

**Q.** What about the “IKZF3 substrate protein remaining %” value [4] of the same compound?
**A.** The value was “B (80%< substrate protein remaining % ≤100%)”.

**Q.** And the “CK1α substrate protein remaining %” value [5]?
**A.** The value was “B (80%< substrate protein remaining % ≤100%)”.

**Q.** What about the “GSPT1 substrate protein remaining %” value [6] of the same compound?
**A.** Its value is “A (0% ≤ substrate protein remaining % ≤80%)”.

**Q.** With `O=C1CCN(N2C(=O)c3ccc(CN4CCC(c5cccc(C(F)(F)F)c5)CC4)cc3C2=O)C(=O)N1` [GT-06880, 2-(2,4-dioxotetrahydropyrimidin-1(2H)-yl)-5-((4-(3-(trifluoromethyl)phenyl)piperidin-1-yl)methyl)isoindoline-1,3-dione] as the compound, how does the “WEE1 substrate protein remaining %” value [1] read?
**A.** Its value is “A (0% ≤ substrate protein remaining % ≤80%)”.

**Q.** What about the “IKZF1 substrate protein remaining %” value [2] of the same compound?
**A.** The value was “B (80%< substrate protein remaining % ≤100%)”.

**Q.** And the “IKZF2 substrate protein remaining %” value [3]?
**A.** The value was “B (80%< substrate protein remaining % ≤100%)”.

**Q.** And the “IKZF3 substrate protein remaining %” value [4]?
**A.** The value was “B (80%< substrate protein remaining % ≤100%)”.

**Q.** And the “CK1α substrate protein remaining %” value [5]?
**A.** Its value is “B (80%< substrate protein remaining % ≤100%)”.

**Q.** And the “GSPT1 substrate protein remaining %” value [6]?
**A.** Its value is “B (80%< substrate protein remaining % ≤100%)”.

**Q.** What does the source list for `Cc1ccc(N2CCN(Cc3ccc4c(c3)CN(N3CCC(=O)NC3=O)C4=O)CC2)c(C)c1` [GT-06882, 1-(5-((4-(2,4-dimethylphenyl)piperazin-1-yl)methyl)-1-oxoisoindolin-2-yl)dihydropyrimidine-2,4(1H,3H)-dione]?
**A.** WEE1 substrate protein remaining % [1]: A (0% ≤ substrate protein remaining % ≤80%); IKZF1 substrate protein remaining % [2]: A (0% ≤ substrate protein remaining % ≤80%); IKZF2 substrate protein remaining % [3]: B (80%< substrate protein remaining % ≤100%); IKZF3 substrate protein remaining % [4]: B (80%< substrate protein remaining % ≤100%); CK1α substrate protein remaining % [5]: B (80%< substrate protein remaining % ≤100%); GSPT1 substrate protein remaining % [6]: A (0% ≤ substrate protein remaining % ≤80%)

**Q.** For `Cc1ccc(Cl)cc1N1CCN(Cc2ccc3c(c2)CN(N2CCC(=O)NC2=O)C3=O)CC1` [GT-06883, 1-(5-((4-(5-chloro-2-methylphenyl)piperazin-1-yl)methyl)-1-oxoisoindolin-2-yl)dihydropyrimidine-2,4(1H,3H)-dione], which “WEE1 substrate protein remaining %” value [1] is on record?
**A.** Its value is “A (0% ≤ substrate protein remaining % ≤80%)”.

**Q.** What about the “IKZF1 substrate protein remaining %” value [2] of the same compound?
**A.** Its value is “A (0% ≤ substrate protein remaining % ≤80%)”.

**Q.** What about the “IKZF2 substrate protein remaining %” value [3] of the same compound?
**A.** Its value is “B (80%< substrate protein remaining % ≤100%)”.

**Q.** And the “IKZF3 substrate protein remaining %” value [4]?
**A.** The value was “B (80%< substrate protein remaining % ≤100%)”.

**Q.** And the “CK1α substrate protein remaining %” value [5]?
**A.** Its value is “B (80%< substrate protein remaining % ≤100%)”.

**Q.** What about the “GSPT1 substrate protein remaining %” value [6] of the same compound?
**A.** Its value is “A (0% ≤ substrate protein remaining % ≤80%)”.

**Q.** How did the “WEE1 substrate protein remaining %” value [1] turn out when `O=C1CCN(N2Cc3cc(CN4CCC(c5ccc(Br)cc5)CC4)ccc3C2=O)C(=O)N1` [GT-06886, 1-(5-((4-(4-bromophenyl)piperidin-1-yl)methyl)-1-oxoisoindolin-2-yl)dihydropyrimidine-2,4(1H,3H)-dione] was run?
**A.** Its value is “B (80%< substrate protein remaining % ≤100%)”.

**Q.** What about the “IKZF1 substrate protein remaining %” value [2] of the same compound?
**A.** Its value is “B (80%< substrate protein remaining % ≤100%)”.

**Q.** And the “IKZF2 substrate protein remaining %” value [3]?
**A.** Its value is “A (0% ≤ substrate protein remaining % ≤80%)”.

**Q.** What about the “IKZF3 substrate protein remaining %” value [4] of the same compound?
**A.** The value was “B (80%< substrate protein remaining % ≤100%)”.

**Q.** And the “CK1α substrate protein remaining %” value [5]?
**A.** The value was “B (80%< substrate protein remaining % ≤100%)”.

**Q.** What about the “GSPT1 substrate protein remaining %” value [6] of the same compound?
**A.** The value was “A (0% ≤ substrate protein remaining % ≤80%)”.
